Here are results for 2 compounds from US20240174605A1, “ARYLSULFONAMIDES AS OREXIN RECEPTOR AGONISTS” (RESEARCH TRIANGLE INSTITUTE, priority 2021, published 2024).

As a reminder, the solubility is the dissolved amount per volume that the medium holds. A high value points to much dissolved substance. For orientation: Emax means the greatest response seen or fitted, relative to the assay's reference. What is called Ki is the dissociation constant of the complex between target and ligand, obtained from inhibition or displacement. Higher therefore signals a looser hold on the target.

A short description of data set [1]: Metabolic stability in rat liver microsomes (RLM). Type of data set: in vitro ADME. The note with it: for metabolic stability in rat liver microsomes, in words: RLM; for half-life: rat, rat liver microsomes, read-out: t1/2 (RLM). The source says: (§1) The main structural difference is the pyridyl group connected to the sulfonamide in RTIOXA-47, as compared to the other 3 compounds. The replacement of a phenyl group with a pyridyl reduced the electron density of this aromatic ring.
For orientation: Microsomes from liver hold many membrane-bound enzymes, among them those of drug oxidation.

The next data set deals with wild-type mice. The note with it: 40 mg/kg i.p., salt form; cited from earlier work.
Data set [2] in a line: Aqueous solubility at pH 2. The format is physicochemical. Conditions: aqueous medium at pH 2, pH 2, simulated gastric fluid.
From the text: as §1

The next data set has as its target T1, human OX2 receptor (Homo sapiens, UniProt O43614).
T1 construct: host or cells: CHO RD-HGA16 cells
T1 sequence (O43614 1-444): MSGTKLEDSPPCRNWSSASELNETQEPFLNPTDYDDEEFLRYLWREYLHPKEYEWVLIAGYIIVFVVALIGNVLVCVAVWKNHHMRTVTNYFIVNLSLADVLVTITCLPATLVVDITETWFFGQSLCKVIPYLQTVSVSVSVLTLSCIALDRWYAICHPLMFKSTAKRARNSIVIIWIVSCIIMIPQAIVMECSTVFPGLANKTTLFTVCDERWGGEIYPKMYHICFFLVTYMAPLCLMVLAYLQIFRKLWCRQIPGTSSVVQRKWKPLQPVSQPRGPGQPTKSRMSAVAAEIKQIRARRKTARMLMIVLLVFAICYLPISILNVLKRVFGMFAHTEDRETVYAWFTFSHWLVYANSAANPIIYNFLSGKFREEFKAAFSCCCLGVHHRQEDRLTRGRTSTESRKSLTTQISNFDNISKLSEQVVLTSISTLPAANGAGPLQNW
The data set can be described thus: OX2R calcium mobilization assay. Type of data set: cell-based. Conditions: Table 10. As for the experimental part: (§2) Activity of the target compounds at the human OX1 and OX2 receptors was determined utilizing CHO RD-HGA16 cells (Molecular Devices) engineered to stably express either the human OX1 or the human OX2 receptor. Cells were maintained in Ham's F12 supplemented with 10% fetal bovine serum, 100 units of penicillin and streptomycin, and 100 μg/mL normocin™. To conduct the assay, cells were plated at 25,000 cells/well and incubated overnight at 37° C., 5% CO2. The next day, cells were washed with assay buffer and loaded with Calcium 5 dye (Molecular Devices). After 45 minutes, cells were pretreated with a 9% DMSO solution for 15 minutes.
(§3) All of the synthesized compounds were characterized for their agonist potencies in the calcium mobilization assays using CHO cells overexpressing either the OX1R or OX2R. Reference is made to German, N. A.; Decker, A. M.; Gilmour, B. P.; Thomas, B. F.; Zhang, Y., Truncated Orexin Peptides: Structure-Activity Relationship Studies.
On the technique in general: Calcium flux is commonly read through the fluorescence of an indicator in the cells.

The next data set concerns the target T2, OX1R (Homo sapiens, UniProt O43613).
T2 sequence (O43613 1-425): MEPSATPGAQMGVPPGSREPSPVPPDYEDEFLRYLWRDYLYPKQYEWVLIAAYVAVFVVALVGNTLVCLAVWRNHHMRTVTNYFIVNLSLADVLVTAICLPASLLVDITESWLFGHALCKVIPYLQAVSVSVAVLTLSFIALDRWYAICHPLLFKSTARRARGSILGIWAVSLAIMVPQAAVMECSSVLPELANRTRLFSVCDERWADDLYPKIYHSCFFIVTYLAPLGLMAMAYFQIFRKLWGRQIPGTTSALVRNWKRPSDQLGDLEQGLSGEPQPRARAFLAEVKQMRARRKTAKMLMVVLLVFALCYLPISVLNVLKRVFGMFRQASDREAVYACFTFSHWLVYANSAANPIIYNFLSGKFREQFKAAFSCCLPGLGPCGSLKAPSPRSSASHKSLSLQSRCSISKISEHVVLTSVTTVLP
The data set can be described thus: OX1R calcium mobilization assay. The format is cell-based. Details: host or cells: CHO RD-HGA16 cells. The note with it: Table 10. The method, then:
as §2, §3

The next data set concerns the target σ1 (Homo sapiens, UniProt Q99720). Put plainly: Target selectivity: σ1. The format is binding.
A short description of another data set: Half-life in vivo. Conditions: read-out: t1/2 (in vivo) (converted).

Entries after “also recorded” stand apart in the source; their conditions may differ.

Chain of σ1 (Q99720 whole entry): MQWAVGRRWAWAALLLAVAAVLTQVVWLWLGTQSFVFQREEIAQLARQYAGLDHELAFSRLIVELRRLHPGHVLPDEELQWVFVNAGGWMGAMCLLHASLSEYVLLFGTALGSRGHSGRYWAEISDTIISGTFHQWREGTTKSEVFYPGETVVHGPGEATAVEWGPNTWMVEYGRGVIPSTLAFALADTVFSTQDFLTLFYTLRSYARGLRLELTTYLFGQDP

`COc1ccc(-c2cccc(C(=O)N(C)C)c2)cc1S(=O)(=O)Nc1cccc(NCCNC(=O)c2ccccc2N(C)C)c1` [Compound 1, reference compound]: in data set [1], the “metabolic stability in rat liver microsomes, in words” value is on record as “modest metabolic stability” and the half-life was < 1 min. The body temperature entry with wild-type mice was “without affecting body temperature”. For the same compound, the solubility in data set [2] was > 400 µM. On human OX2 receptor, the Emax turned out to be 94%. The Emax on OX1R is 55%. This compound came in with a Ki at σ1 of 2500 nM.
Regarding `COc1ccc(-c2cccc(C(=O)N(C)Cc3ccncc3)c2)cc1S(=O)(=O)Nc1cncc(NCCNC(=O)c2cccc(C)c2)c1` [Compound 61], the “metabolic stability in rat liver microsomes, in words” value in data set [1] (listed as RTIOXA-47) is “significantly improved half-life; also recorded: significantly improved metabolic stability”. For the same compound, the half-life is 39.7 min in data set [1] and 318 min in the data set “Half-life in vivo”. For the same compound, the solubility in data set [2] is > 400 µM. In addition, the Emax is 99% at human OX2 receptor and 101% on OX1R.
